This note sets out measurements from BindingDB's records for doi:10.1021/jm00032a003 (Merck Research Laboratories, 1994).

A short description of this test: The compound was tested for binding activity against Cholecystokinin type B receptor from rat […] tissue using [125]BH CCK-8 as radioligand.

SMILES strings stand for the structures.

What is called IC50 is the concentration that inhibits the measured activity by half. A lower IC50 goes with inhibition by little substance. `CN1C(=O)[C@H](NC(=O)Nc2ccc(C(=O)O)cc2)N=C(c2ccccc2)c2ccccc21` came in with an IC50 of 6.7 nM. This counts as single-digit nanomolar.

For `CC(C)CN1C(=O)[C@H](NC(=O)Nc2ccc(-c3nnn[nH]3)cc2)N=C(c2ccccc2)c2ccccc21` [1-((R)-1-Isobutyl-2-oxo-5-phenyl-2,3-dihydro-1H-benzo[e][1,4]diazepin-3-yl)-3-[4-(1H-tetrazol-5-yl)-phenyl]-urea], the IC50 amounted to 23.8 nM. Next, `CN1C(=O)[C@H](NC(=O)Nc2ccc(-c3nnn[nH]3)cc2)N=C(c2ccccc2)c2ccccc21` [1-((R)-1-Methyl-2-oxo-5-phenyl-2,3-dihydro-1H-benzo[e][1,4]diazepin-3-yl)-3-[4-(1H-tetrazol-5-yl)-phenyl]-urea]: 250 nM; `CN1C(=O)[C@H](NC(=O)Nc2ccc(-c3nc(=O)o[nH]3)cc2)N=C(c2ccccc2)c2ccccc21` [1-((R)-1-Methyl-2-oxo-5-phenyl-2,3-dihydro-1H-benzo[e][1,4]diazepin-3-yl)-3-[4-(5-oxo-4,5-dihydro-[1,2,4]oxadiazol-3-yl)-phenyl]-urea]: 56.4 nM; `CC(C)CN1C(=O)[C@@H](NC(=O)Nc2ccc(-c3nnn[nH]3)cc2)N=C(c2ccccc2)c2ccccc21` [1-((S)-1-Isobutyl-2-oxo-5-phenyl-2,3-dihydro-1H-benzo[e][1,4]diazepin-3-yl)-3-[4-(1H-tetrazol-5-yl)-phenyl]-urea]: 0.142 nM. As for `CN1C(=O)[C@@H](NC(=O)Nc2ccc(-c3nnn[nH]3)cc2)N=C(c2ccccc2)c2ccccc21` [1-((S)-1-Methyl-2-oxo-5-phenyl-2,3-dihydro-1H-benzo[e][1,4]diazepin-3-yl)-3-[4-(1H-tetrazol-5-yl)-phenyl]-urea], the half-maximal inhibitory concentration (IC50) worked out at 1.02 nM. For `CN1C(=O)[C@@H](NC(=O)Nc2ccc(-c3nc(=O)o[nH]3)cc2)N=C(c2ccccc2)c2ccccc21` [1-((S)-1-Methyl-2-oxo-5-phenyl-2,3-dihydro-1H-benzo[e][1,4]diazepin-3-yl)-3-[4-(5-oxo-4,5-dihydro-[1,2,4]oxadiazol-3-yl)-phenyl]-urea], the half-maximal inhibitory concentration (IC50) was 0.266 nM.
